In article PMC7180948, “New Insights into 4-Anilinoquinazolines as Inhibitors of Cardiac Troponin I–Interacting Kinase (TNNi3K)” (Molecules, 2020):

What was measured:
Assay in all cases: biochemical
Parameters in all cases: KINOMEscan competition binding panel (Eurofins DiscoverX), single concentration, percent inhibition
Settings in all cases: read-out: 15 at 1 µM % inhibition
ABL1-nonphosphorylated = biological target: T1, ABL1-nonphosphorylated (Homo sapiens, UniProt P00519)
T1 construct: nonphosphorylated
How it was run: (§1)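 KINOMEscan selectivity screen; >400 human kinases; compound at 1 µM, single concentration.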

ABL1-phosphorylated = biological target: T2, ABL1-phosphorylated (Homo sapiens, UniProt P00519)
T2 construct: phosphorylated
How it was run: as §1

NIM1 = biological target: T3, NIM1 (Homo sapiens, UniProt Q8IY84)
T3 construct: gene NIM1K
T3 sequence (Q8IY84 whole entry): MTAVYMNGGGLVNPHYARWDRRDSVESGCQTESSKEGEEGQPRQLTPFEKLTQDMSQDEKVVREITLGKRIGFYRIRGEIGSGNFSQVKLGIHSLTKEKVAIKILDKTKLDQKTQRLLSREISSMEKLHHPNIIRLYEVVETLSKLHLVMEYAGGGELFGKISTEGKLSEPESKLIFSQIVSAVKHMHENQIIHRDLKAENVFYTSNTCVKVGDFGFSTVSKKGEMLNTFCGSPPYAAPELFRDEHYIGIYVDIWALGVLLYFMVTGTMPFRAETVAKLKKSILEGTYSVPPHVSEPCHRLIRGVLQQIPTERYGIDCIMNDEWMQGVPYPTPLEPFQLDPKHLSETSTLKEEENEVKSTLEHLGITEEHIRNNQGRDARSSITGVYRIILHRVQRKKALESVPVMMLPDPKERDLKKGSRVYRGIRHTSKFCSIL
How it was run: as §1

EPHA5 = EPHA5 (Homo sapiens, UniProt P54756)
How it was run: as §1

DYRK1B = DYRK1B (Homo sapiens, UniProt Q9Y463)
How it was run: as §1

ACVR1B = ACVR1B (Homo sapiens, UniProt P36896)
How it was run: as §1

CLK1 = CLK1 (Homo sapiens, UniProt P49759)
Chain of CLK1 (P49759 whole entry): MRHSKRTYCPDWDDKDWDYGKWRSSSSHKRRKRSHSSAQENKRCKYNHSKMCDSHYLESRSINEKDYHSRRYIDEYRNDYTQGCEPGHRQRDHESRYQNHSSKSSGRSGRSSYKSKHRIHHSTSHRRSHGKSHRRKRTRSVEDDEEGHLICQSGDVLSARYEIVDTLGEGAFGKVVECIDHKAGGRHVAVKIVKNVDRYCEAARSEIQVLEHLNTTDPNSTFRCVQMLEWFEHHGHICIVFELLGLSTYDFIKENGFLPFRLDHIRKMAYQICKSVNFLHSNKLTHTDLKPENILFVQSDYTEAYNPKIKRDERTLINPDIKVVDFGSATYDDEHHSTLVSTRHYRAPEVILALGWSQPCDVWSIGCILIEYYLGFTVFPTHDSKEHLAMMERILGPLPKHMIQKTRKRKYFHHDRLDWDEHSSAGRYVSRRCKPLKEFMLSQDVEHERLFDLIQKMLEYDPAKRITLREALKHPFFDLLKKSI
How it was run: as §1

EPHA1 = EPHA1 (Homo sapiens, UniProt P21709)
How it was run: as §1

PCTK3 = biological target: T4, PCTK3 (Homo sapiens, UniProt Q07002)
T4 construct: gene CDK18
T4 sequence (Q07002 whole entry): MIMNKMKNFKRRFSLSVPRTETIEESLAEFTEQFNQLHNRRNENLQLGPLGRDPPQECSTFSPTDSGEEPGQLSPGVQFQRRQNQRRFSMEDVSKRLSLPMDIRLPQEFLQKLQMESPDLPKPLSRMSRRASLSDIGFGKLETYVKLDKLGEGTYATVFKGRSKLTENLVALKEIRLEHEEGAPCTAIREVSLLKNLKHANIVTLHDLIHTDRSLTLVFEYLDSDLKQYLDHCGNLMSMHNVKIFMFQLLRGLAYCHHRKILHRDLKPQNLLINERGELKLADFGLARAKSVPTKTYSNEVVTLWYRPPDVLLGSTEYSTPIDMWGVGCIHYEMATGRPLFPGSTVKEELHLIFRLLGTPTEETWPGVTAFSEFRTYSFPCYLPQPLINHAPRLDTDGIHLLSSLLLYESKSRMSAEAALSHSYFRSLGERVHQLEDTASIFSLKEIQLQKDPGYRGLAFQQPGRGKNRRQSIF
How it was run: as §1

PFTK1 = biological target: T5, PFTK1 (Homo sapiens, UniProt O94921)
T5 construct: gene CDK14
How it was run: as §1

BMPR1B = BMPR1B (Homo sapiens, UniProt O00238)
Chain of BMPR1B (O00238 whole entry): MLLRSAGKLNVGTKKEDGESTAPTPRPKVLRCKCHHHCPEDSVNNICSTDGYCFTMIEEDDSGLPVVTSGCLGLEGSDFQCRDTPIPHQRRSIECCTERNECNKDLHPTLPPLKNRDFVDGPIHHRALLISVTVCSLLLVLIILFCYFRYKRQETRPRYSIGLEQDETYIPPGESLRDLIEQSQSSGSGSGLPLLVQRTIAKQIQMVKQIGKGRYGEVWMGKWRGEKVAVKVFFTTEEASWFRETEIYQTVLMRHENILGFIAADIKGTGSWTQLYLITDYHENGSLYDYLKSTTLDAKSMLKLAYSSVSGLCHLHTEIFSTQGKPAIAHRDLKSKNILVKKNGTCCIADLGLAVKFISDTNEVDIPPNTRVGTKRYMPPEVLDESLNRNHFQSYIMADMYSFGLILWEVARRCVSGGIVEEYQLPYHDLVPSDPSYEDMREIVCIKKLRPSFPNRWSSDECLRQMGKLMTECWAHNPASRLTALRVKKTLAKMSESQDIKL
How it was run: as §1

CAMK2D = CAMK2D (Homo sapiens, UniProt Q13557)
How it was run: as §1

TNK1 = TNK1 (Homo sapiens, UniProt Q13470)
Chain of TNK1 (Q13470 whole entry): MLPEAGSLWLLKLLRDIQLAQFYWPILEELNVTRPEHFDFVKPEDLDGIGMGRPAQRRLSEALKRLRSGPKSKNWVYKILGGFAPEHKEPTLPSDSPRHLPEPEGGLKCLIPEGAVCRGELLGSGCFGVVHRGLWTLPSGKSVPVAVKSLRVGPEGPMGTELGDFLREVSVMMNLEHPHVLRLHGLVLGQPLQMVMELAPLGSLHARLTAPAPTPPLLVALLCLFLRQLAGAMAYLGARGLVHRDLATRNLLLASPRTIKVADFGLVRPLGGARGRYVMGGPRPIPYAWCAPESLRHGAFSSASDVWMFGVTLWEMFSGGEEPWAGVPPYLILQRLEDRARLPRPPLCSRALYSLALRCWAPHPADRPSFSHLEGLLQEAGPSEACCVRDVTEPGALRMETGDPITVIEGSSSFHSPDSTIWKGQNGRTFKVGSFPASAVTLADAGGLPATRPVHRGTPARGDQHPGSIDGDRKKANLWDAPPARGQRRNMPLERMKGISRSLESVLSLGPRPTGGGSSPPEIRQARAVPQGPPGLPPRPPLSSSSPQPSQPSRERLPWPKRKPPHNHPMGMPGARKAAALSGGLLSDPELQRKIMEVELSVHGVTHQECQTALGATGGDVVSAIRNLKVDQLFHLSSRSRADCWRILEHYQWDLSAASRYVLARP
How it was run: as §1

CDKL5 = CDKL5 (Homo sapiens, UniProt O76039)
How it was run: as §1

p38-gamma = biological target: T6, p38-gamma (Homo sapiens, UniProt P53778)
T6 construct: gene MAPK12
How it was run: as §1

ROS1 = ROS1 (Homo sapiens, UniProt P08922)
How it was run: as §1

ZAP70 = ZAP70 (Homo sapiens, UniProt P43403)
Chain of ZAP70 (P43403 whole entry): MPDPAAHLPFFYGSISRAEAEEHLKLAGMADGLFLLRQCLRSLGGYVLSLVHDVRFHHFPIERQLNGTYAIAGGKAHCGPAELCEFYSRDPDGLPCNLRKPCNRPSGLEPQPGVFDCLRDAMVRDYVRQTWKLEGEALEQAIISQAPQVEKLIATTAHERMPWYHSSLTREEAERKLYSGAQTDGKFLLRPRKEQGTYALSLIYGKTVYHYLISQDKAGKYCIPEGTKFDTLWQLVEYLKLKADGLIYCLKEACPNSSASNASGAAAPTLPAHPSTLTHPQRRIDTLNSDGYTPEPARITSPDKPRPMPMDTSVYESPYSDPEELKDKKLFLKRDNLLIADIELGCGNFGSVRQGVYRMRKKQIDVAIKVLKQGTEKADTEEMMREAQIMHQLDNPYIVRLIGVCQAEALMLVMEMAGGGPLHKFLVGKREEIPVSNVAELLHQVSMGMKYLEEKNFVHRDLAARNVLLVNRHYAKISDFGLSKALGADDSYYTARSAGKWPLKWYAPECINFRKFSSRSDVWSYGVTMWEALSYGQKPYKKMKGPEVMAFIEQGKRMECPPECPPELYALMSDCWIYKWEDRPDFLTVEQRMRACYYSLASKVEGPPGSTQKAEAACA
How it was run: as §1

NEK1 = NEK1 (Homo sapiens, UniProt Q96PY6)
How it was run: as §1

FER = FER (Homo sapiens, UniProt P16591)
How it was run: as §1

ULK3 = ULK3 (Homo sapiens, UniProt Q6PHR2)
How it was run: as §1

[1] = biological target: T7, JAK1(JH1domain-catalytic) (Homo sapiens, UniProt P23458)
T7 construct: JH1domain-catalytic
T7 sequence (P23458 whole entry): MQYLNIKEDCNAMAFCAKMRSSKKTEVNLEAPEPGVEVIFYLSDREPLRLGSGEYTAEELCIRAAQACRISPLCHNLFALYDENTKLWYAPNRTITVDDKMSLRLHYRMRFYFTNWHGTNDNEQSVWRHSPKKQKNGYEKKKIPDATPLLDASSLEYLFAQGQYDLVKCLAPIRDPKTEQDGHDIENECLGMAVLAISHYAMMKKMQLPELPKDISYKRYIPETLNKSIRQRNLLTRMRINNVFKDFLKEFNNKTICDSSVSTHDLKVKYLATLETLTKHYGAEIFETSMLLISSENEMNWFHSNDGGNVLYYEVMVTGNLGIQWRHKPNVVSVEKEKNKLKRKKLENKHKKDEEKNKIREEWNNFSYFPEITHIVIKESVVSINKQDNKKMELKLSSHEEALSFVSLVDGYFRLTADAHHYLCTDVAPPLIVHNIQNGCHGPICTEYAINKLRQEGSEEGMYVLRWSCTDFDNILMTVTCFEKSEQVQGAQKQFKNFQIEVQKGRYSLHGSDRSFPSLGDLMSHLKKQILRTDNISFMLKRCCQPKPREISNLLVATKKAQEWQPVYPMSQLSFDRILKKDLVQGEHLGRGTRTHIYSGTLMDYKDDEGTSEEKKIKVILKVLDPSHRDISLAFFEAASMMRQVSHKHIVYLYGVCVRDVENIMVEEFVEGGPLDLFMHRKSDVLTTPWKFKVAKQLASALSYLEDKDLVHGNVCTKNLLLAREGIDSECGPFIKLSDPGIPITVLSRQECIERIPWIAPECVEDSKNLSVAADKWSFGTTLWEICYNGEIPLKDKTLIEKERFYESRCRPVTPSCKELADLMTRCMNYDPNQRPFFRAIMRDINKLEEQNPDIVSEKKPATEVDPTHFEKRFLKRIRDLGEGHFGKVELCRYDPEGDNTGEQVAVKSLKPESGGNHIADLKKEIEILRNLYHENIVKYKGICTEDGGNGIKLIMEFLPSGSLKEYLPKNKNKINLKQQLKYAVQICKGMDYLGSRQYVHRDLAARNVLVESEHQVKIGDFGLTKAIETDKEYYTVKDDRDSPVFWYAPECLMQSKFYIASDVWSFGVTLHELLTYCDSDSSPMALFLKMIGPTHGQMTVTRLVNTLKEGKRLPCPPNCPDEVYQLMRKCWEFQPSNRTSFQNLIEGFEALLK
How it was run: as §1

CDK4-cyclinD1 = biological target: T8, CDK4-cyclinD1 (Homo sapiens, UniProt P11802)
T8 construct: cyclinD1
T8 sequence (P11802 whole entry): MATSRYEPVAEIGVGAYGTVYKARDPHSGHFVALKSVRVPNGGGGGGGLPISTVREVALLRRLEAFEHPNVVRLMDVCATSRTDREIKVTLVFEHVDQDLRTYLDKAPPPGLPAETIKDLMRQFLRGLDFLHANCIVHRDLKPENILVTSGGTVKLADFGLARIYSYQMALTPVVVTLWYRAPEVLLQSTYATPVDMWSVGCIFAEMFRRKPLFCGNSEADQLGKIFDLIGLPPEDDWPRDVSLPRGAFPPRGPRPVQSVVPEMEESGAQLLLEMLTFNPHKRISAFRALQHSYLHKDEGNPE
T8 sequence (P24385 whole entry partner): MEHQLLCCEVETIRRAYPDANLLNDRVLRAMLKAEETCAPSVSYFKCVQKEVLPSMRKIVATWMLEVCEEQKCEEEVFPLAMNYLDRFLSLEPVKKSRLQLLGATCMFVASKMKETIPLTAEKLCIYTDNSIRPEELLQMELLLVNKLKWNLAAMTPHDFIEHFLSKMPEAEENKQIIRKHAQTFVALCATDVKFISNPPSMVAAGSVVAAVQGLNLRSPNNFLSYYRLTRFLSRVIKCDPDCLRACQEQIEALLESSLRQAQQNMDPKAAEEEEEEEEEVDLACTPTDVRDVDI
How it was run: as §1

[2] = biological target: T9, RPS6KA5(Kin.Dom.1-N-terminal) (Homo sapiens, UniProt O75582)
T9 construct: Kin.Dom.1-N-terminal
How it was run: as §1

EGFR(E746-A750del) = EGFR(E746-A750del) (Homo sapiens, UniProt P00533, DEL746-750)
How it was run: as §1

- inhibition at 1 µM (ABL1-nonphosphorylated): 13%
- inhibition at 1 µM (ABL1-phosphorylated): 0%
- inhibition at 1 µM (NIM1): 27%
- inhibition at 1 µM (EPHA5): 0%
- inhibition at 1 µM (DYRK1B): 17%
- inhibition at 1 µM (ACVR1B): 0%
- inhibition at 1 µM (CLK1): 0%
- inhibition at 1 µM (EPHA1): 0%
- inhibition at 1 µM (PCTK3): 0%
- inhibition at 1 µM (PFTK1): 0%
- inhibition at 1 µM (BMPR1B): 31%
- inhibition at 1 µM (CAMK2D): 0%
- inhibition at 1 µM (TNK1): 35%
- inhibition at 1 µM (CDKL5): 19%
- inhibition at 1 µM (p38-gamma): 17%
- inhibition at 1 µM (ROS1): 0%
- inhibition at 1 µM (ZAP70): 0%
- inhibition at 1 µM (NEK1): 1%
- inhibition at 1 µM (FER): 0%
- inhibition at 1 µM (ULK3): 23%
- inhibition at 1 µM [1]: 0%
- inhibition at 1 µM (CDK4-cyclinD1): 36%
- inhibition at 1 µM [2]: 0%
- inhibition at 1 µM (EGFR(E746-A750del)): 31%
Compound: CNS(=O)(=O)c1ccc(N(C)C)c(Nc2nc(C)nc3cc(OC)c(OC)cc23)c1 [compound 15, 3-((6,7-dimethoxy-2-methylquinazolin-4-yl)amino)-4-(dimethylamino)-N-methylbenzenesulfonamide]
